In patent US20110263694A1, “Use of Xanthone Derivatives as a Medicament for Cancer” (MUSEUM NATIONAL D'HISTOIRE NATURELLE, priority 2008, published 2011):

Key:
purified B-lymphocytes = assay: MTT cytotoxicity on purified normal B-lymphocytes; assay type: cell-based, human; details: 5 or 10 μg/ml, 48 hours; FIG. 5C
Procedure: (§1) FIG. 5: The effect of the compounds M1, M2, M4, M5 and M6 on the viability and apoptosis of normal lymphocytes was evaluated as indicated in the Examples section. A/ PBMC isolated from the blood of normal volunteers were incubated at 2×10^6/ml for 48 hours in the presence of medium alone (grey bar) or containing 1 μg/ml (black bar) or 10 μg/ml (slashed bars) of the different compounds. At the end of the incubation time, the percentage of enrichment in cytoplasmic nucleosomes was evaluated as indicated in the Examples Section. PBMC (A) and purified B lymphocytes (C) from normal blood donors were incubated for 48 hours with medium alone (grey bar) or containing 5 μg/ml (black bar) or 10 μg/ml (slashed bar) of the selected reagents M1, M2, M4 and M6. Viability was estimated after labelling the cells with a 5 hours pulse of MTT and determination of the absorbance at 540 nm as indicated in the Examples Section.
(§2) Leukemia cells from B-CLL patients were adjusted at 2×10^6/ml and 200 μl aliquots were distributed in triplicate samples in the wells of a 96-well microtitration plate and cultured in the absence or presence of the various reagents. After 18 hours of incubation at 37° C. in a humidified atmosphere containing 5% CO2, 20 μl of a 5 mg/ml solution of MTT (Sigma, St Louis, Mo., USA) were added to the wells for an additional 6 hours incubation. The microplates were centrifuged at 400×g for 20 min, the supernatants carefully discarded and 200 μl of DMSO were added to the wells to dissolve the precipitates of formazan. The optical density was measured with the use of a microplate reader (Victor-2, Wallac, Perkin Elmer, Norwalk, Mont., USA) at the wavelength of 540 nm.
(§3) Blood samples from healthy donors were obtained from the Institut Francais du Sang as residues from platelet preparations. The healthy blood donors were under 60 years old, according to the French legislation, and therefore they could not be exactly age-matched with the B-CLL patients. PBMC were prepared as described elsewhere (Zhao et al, Blood 1998; 92: 1031-1043) and normal B-lymphocytes were purified by positive selection on anti-CD19-coated magnetic beads according to the specifications of the manufacturer (Dynal, Oslo, Norway) (Kern et al, Blood 2004; 103: 679-688). Their purity usually ranged from 92% to 95%, as estimated by labelling with an anti-CD20-phycoerythrin (PE) antibody, and monocyte contamination never exceeded 2% (Kern et al, Blood 2004; 103: 679-688).

ESKOL cells [1] = assay: Antiproliferative effect on ESKOL cells (viable cell count, Coulter counter); assay type: cell-based, human; details: 1 and 10 μg/ml; 1, 2 or 4 days; FIGS. 1A and 1B
Procedure: FIG. 1: The antiproliferative effects of M1, M2, M4, M5 and M6 were compared as indicated in the Examples Section on ESKOL cells. ESKOL cells were seeded at 2×10^5 cells/ml in the wells of micro-titration plate in the presence or absence (medium alone: ◯, DMSO: […]) of M1 (□), M2 (▪), M4 (▴), M5 ([…]), M6 (◯) at the concentrations of 1 μg/ml (A) and 10 μg/ml (B). After various times of incubation (1, 2 or 4 days), aliquots were harvested and the concentration of viable cells was measured in a Coulter counter as indicated in the examples.
The anti-proliferative effects of the isolated molecules were investigated on the ESKOL cell line derived from a hairy cell leukemia patient, a chronic B cell malignancy (Harvey et al, Leuk Res. 1991; 15: 733-744).
Cells were routinely cultured at seeding densities of 2×10^6 cells/ml in RPMI-1640 medium supplemented with 2 mM glutamine, 1 mM sodium pyruvate, 100 IU/ml penicillin, 100 μg/ml streptomycin and 10% FCS (PAA Laboratories, Pasching, Austria) and cultures were performed at 37° C. in an humidified atmosphere containing 5% CO2.
For the assay, ESKOL cells were seeded at 2×10^5/ml in 24-well microtitration plate, together with two concentrations (1 and 10 μg/ml) of the […] xanthones or 1% DMSO (solvent) as control. After 1, 2 and 4 days of culture, aliquots of cells were collected and the cell concentration was evaluated by counting the number of viable cells with a Coulter Multisizer counter Z2 (Coultronics, Margency, France) allowing the discrimination between viable and dead cells and debris according to size distribution.
Cells were cultured in duplicates or triplicates and each experiment repeated 2 to 5 times.

normal PBMC = assay: MTT cytotoxicity on normal PBMC; assay type: cell-based, human; details: 5 or 10 μg/ml, 48 hours; FIG. 5B
Procedure: as §1, §2, §3

ESKOL cells [2] = assay: Annexin V-FITC labelling of ESKOL cells (phosphatidylserine externalisation, flow cytometry); assay type: cell-based, human; details: 1 μg/ml, 24 hours; for % Annexin V+ cells: ESKOL cells, after subtraction of control value
Excerpt: The induction of apoptosis was further confirmed by assessing the percentage of cells expressing phosphatidylserine at the outer leaflet of the plasma membrane by flow cytometry.
The phosphatidylserine (PS) externalisation, a membrane marker of cells undergoing apoptosis, was quantified by specific binding of FITC-conjugated annexin V (Bender Medsystems, Vienna, Austria), with or without simultaneous labelling with propidium iodide (PI), according to a modification of the technique described by Koopman (Koopman et al, Blood 1994; 84:1415-1420). The percentages of annexin V-FITC positive and PI negative cells were determined by cytometry on an EPICS Altra flow cytometer (Beckman Coulter).
The ESKOL cells (10^6/ml) were cultured in the absence (C=control) or the presence of 1 μg/ml of the various Allanblackia molecules. After 24 hours of incubation, the percentage of cells labelled with Annexin V-FITC was measured by flow cytometry as previously indicated. Results are expressed after subtraction of the value for control unstimulated cells. P values were estimated by Kolmogorov-Smirnov analysis using the Statview software.

B-CLL cells = assay: MTT viability of freshly isolated B-CLL cells; assay type: cell-based, human; details: FIG. 3, 6 B-CLL patients
Procedure: FIG. 3: The effect of the molecules M1, M2, M4, M5 and M6 on the viability of B-CLL cells was determined. Tumour cells freshly isolated from B-CLL patients were suspended at 2×10^6/ml in complete RPMI-1640 medium and incubated for 48 hours in the presence or absence of either 1 μg/ml (black bars) or 10 μg/ml (gray bars) of the various molecules. MTT was incorporated into the cells during the last 5 hours of incubation and the viability was measured by recording the formation of the formazan precipitate as described in the Examples section. The results are expressed as the percentage of the viability of the treated cells in comparison with control cells incubated with medium alone taken as 100% and represent the mean±SE of 6 B-CLL patients.
Blood samples from B-CLL patients were obtained from the Haematology Department of Hôtel-Dieu hospital (Paris, France) after written informed consent, in accordance with the rules and tenets of the revised Helsinki protocol. Diagnosis was established according to standard clinical and international CLL workshop criteria, including lymphocyte morphology and co-expression of CD5, CD20 and CD23 antigens. A total of 12 patients (6 men and 6 women) with an age ranging 50-84 years (mean±SD: 68±8.8 years) were selected and the time since diagnosis varied between 0 (newly diagnosed patients) and 10 years. The patients were randomly chosen for each type of experiment inasmuch as CD38 and ZAP-70 expression, cytogenetic analysis and mutational VH status were only available for a fraction of them, thus hampering a risk-group analysis. The leukemia B-cells were isolated with purity greater than 96%, as previously described (Zhao et al, Blood 1998; 92: 1031-1043). All the experiments were performed with freshly purified B-CLL leukemia cells.
M1, M2, M4, M5 and M6 were thus tested for their possible action on the viability of these leukemia cells by the MTT assay that relies on the integrity of the mitochondrial succinyl dehydrogenase.
as §2

ESKOL cells [3] = assay: Enrichment in cytoplasmic nucleosomes (DNA cleavage) in ESKOL cells; assay type: cell-based, human; details: 2 days, 1 or 10 μg/ml; FIG. 2B
Procedure: B/ The percentage of enrichment in cytoplasmic nucleosomes was evaluated simultaneously as a surrogate for DNA cleavage.
The detection of cytoplasmic histone-associated DNA fragments (mono- and oligonucleosomes) was performed in cell lysates from aliquots of 20,000 cells using an ELISA with anti-histone and anti-DNA fragment mAbs (Cell Death Detection ELISA^PLUS, Roche Diagnostics, Indianapolis, Ind., USA) as previously described (Billard et al, Leuk Lymphoma 2002; 43: 1991-2002).

[4] = test system: human A375 melanoma cell line; details: Azebaze et al 2006; cited from earlier work
Plasmodium = details: literature; cited from earlier work
[5] = test system: human A549 lung cancer cells; details: Lee et al 2005, read-out: IC50 cytotoxic activity; cited from earlier work
[6] = test system: SK-OV3 ovarian cancer cells; details: Lee et al 2005, read-out: IC50 cytotoxic activity; cited from earlier work

Molecule	cytotoxic effect on purified normal B-lymphocytes (MTT) (purified B-lymphocytes)	proliferation of ESKOL cells (ESKOL cells [1])	cytotoxic effect on normal PBMC (MTT) (normal PBMC)	% Annexin V+ cells (ESKOL cells [2]) [%]	viability of B-CLL cells (MTT) (B-CLL cells; 1 μg/ml)	viability of B-CLL cells (MTT) (B-CLL cells; 10 μg/ml)	DNA breakdown (enrichment in cytoplasmic nucleosomes) in ESKOL cells (ESKOL cells [3])	increase in the percentage of Annexin V positive ESKOL cells (in words) (ESKOL cells [2])	cytotoxicity on A375 cell line [4]	antiplasmodial activity (Plasmodium)	IC50 [5] [µM]	IC50 [6] [µM]
COc1ccc2oc3cc(O)c(CC=C(C)C)c(O)c3c(=O)c2c1 [M1, 1,3 dihydroxy-7-methoxy-2(3-methylbut-2enyl)xanthone]	no toxic effect	markedly and dose-dependently slowed down the proliferation	no toxic effect	5.6	no significant effect	marked reduction in the viability	–	–	–	–	–	–
CC(C)=CCc1c(O)cc2oc3c(c(=O)c2c1O)C(CC=C(C)C)(CC=C(C)C)C(=O)C(O)=C3 [M4, allanxanthone C]	no toxic effect	markedly and dose-dependently slowed down the proliferation	no toxic effect	10.2	no significant effect	marked reduction in the viability	potent inducers of DNA breakdown	to a lesser degree	–	–	–	–
CC(C)=CCC/C(C)=C/Cc1c(O)c(O)cc2oc3cc(O)c(CC=C(C)C)c(O)c3c(=O)c12 [M5, norcowanin]	–	markedly and dose-dependently slowed down the proliferation	–	9.4	no significant effect	marked reduction in the viability	potent inducers of DNA breakdown	to a lesser degree	weak cytotoxicity	antiplasmodial activity	–	–
C=CC(C)(C)c1c2c(c(O)c3c(=O)c4ccc(O)c(O)c4oc13)C=CC(C)(C)O2 [M6, Macluraxanthone]	somewhat sensitive	markedly and dose-dependently slowed down the proliferation	somewhat sensitive	36.5	no significant effect	marked reduction in the viability	potent inducers of DNA breakdown	significant increase	–	–	2.88	4.24
allanxanthone C [M4]	–	–	–	–	–	–	–	–	cytotoxicity	displays antiplasmodial activity	–	–
